According to US12391737B2, “Soluble NPY2 receptor agonists” (Boehringer Ingelheim International GmbH, priority 2020, dated 2025):

Experiments:
[1] = Solubility determination; conditions: for Sol6: pH 6; for Sol7: pH 7
Summary of the method: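 First, TFA-salt peptide was added to 0.1 M sodium diphosphate (pH 6.4 or 7.0) to 10 mg/ml and shaken 2 h at room temperature. Next, insoluble material was filtered off. Finally, filtrate and control, each 1 mg/ml in 50% acetonitrile, were compared by reversed-phase chromatography.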

[2] = target: T1, Human Neuropeptide Y2 Receptor (Homo sapiens, UniProt P49146); test: Radioligand binding competition assay (RLB); conditions: Table 3, 125I-PYY(1-36) competition; read-out: Ki
T1 construct: purchased CHEMICON HTS066M
T1 sequence (P49146 1-381): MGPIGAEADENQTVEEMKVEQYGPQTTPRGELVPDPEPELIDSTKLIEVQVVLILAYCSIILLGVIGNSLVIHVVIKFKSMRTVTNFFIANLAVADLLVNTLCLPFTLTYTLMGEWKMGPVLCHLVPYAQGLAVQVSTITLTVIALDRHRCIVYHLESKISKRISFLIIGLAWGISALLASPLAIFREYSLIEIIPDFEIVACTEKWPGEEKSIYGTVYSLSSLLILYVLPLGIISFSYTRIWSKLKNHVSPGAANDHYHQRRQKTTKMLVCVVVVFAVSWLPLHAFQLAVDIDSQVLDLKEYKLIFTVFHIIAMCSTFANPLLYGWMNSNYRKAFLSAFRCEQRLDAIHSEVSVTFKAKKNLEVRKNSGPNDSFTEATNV
Summary of the method: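 Receptor membranes, 0.5 μg/well; buffer 50 mM HEPES/5 mM MgCl2/1 mM CaCl2/0.2% ovalbumin, pH 7.4; 2 h RT, shaking. GF/C filtration, cold HEPES/500 mM NaCl wash, scintillation count. IC50 by nonlinear regression.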

SMILES | Sol6 [1] [mg/mL] | Sol7 [1] [mg/mL] | Ki [2] [nM]
CC[C@H](C)[C@H](NC(=O)[C@H](CCC(=O)O)NC(=O)[C@H](CCC(=O)O)NC(=O)[C@@H]1CCCN1C(=O)[C@H](CO)NC(=O)[C@H](C)NC(=O)[C@H](CC(=O)O)NC(=O)[C@H](CCC(=O)O)NC(=O)[C@H](CCC(=O)O)NC(=O)[C@@H]1CCCN1C(=O)[C@H](CCCCNC(=O)CCCCCNC(=O)CC[C@H](NC(=O)CCCCCCCCCCCCCCCCC(=O)O)C(=O)O)NC(=O)[C@H](CCC(=O)O)NC(=O)[C@@H]1CCCN1C(=O)[C@H](C)NC(=O)CC(C)C)C(=O)N[C@@H](CCC(N)=O)C(=O)N[C@@H](CCCNC(=N)N)C(=O)N[C@@H](Cc1ccc(O)cc1)C(=O)N[C@@H](Cc1ccc(O)cc1)C(=O)N[C@H](C(=O)N[C@@H](CCC(N)=O)C(=O)N[C@@H](CC(C)C)C(=O)N[C@@H](CCCNC(=N)N)C(=O)N[C@@H](Cc1c[nH]cn1)C(=O)N[C@@H](Cc1ccc(O)cc1)C(=O)N[C@@H](Cc1ccc(O)cc1)C(=O)N[C@@H](CC(N)=O)C(=O)N[C@@H](Cc1c[nH]c2ccccc12)C(=O)N[C@@H](CC(C)C)C(=O)N[C@H](C(=O)N[C@@H](CCCNC(=N)N)C(=O)N[C@@H](CCC(N)=O)C(=O)N[C@@H](CCCNC(=N)N)C(=O)N[C@@H](Cc1ccc(O)cc1)C(N)=O)[C@@H](C)O)C(C)C [Compound 93, N{alpha-4}-(3-methylbutanoyl)-N{epsilon-7}-(6-[(4S)-4-carboxy-4-(17-carboxyheptadecanamido)butanamido]hexanoyl)-[4A,7K,9E,17I,18Q,22V,23Q,28Y,30W,31L]-hPYY(4-36)] | 9.4 | 9.7 | 1.71
CC(C)CC(=O)N[C@@H](C)C(=O)N1CCC[C@H]1C(=O)N[C@@H](C)C(=O)N[C@@H](CCCCNC(=O)CCCCCNC(=O)CC[C@H](NC(=O)CCCCCCCCCCCCCCCCC(=O)O)C(=O)O)C(=O)N1CCC[C@H]1C(=O)N[C@@H](CCC(=O)O)C(=O)N[C@@H](C)C(=O)N[C@@H](CC(=O)O)C(=O)N[C@@H](C)C(=O)N[C@@H](CO)C(=O)N1CCC[C@H]1C(=O)N[C@@H](CCC(=O)O)C(=O)N[C@@H](CCC(=O)O)C(=O)N[C@@H](CC(C)C)C(=O)N[C@@H](CCC(N)=O)C(=O)N[C@@H](CCCNC(=N)N)C(=O)N[C@@H](Cc1ccc(O)cc1)C(=O)N[C@@H](Cc1ccc(O)cc1)C(=O)N[C@H](C(=O)N[C@@H](CCC(=O)O)C(=O)N[C@@H](CC(C)C)C(=O)N[C@@H](CCCNC(=N)N)C(=O)N[C@@H](Cc1c[nH]cn1)C(=O)N[C@@H](Cc1ccc(O)cc1)C(=O)N[C@@H](Cc1ccc(O)cc1)C(=O)N[C@@H](CC(N)=O)C(=O)N[C@@H](Cc1c[nH]c2ccccc12)C(=O)N[C@@H](CC(C)C)C(=O)N[C@H](C(=O)N[C@@H](CCCNC(=N)N)C(=O)N[C@@H](CCC(N)=O)C(=O)N[C@@H](CCCNC(=N)N)C(=O)N[C@@H](Cc1ccc(O)cc1)C(N)=O)[C@@H](C)O)C(C)C [Compound 94, N{alpha-4}-(3-methylbutanoyl)-N{epsilon-7}-(6-[(4S)-4-carboxy-4-(17-carboxyheptadecanamido)butanamido]hexanoyl)-[4A,6A,7K,9E,10A,18Q,22V,23E,28Y,30W,31L]-hPYY(4-36)] | 8.4 | 8.9 | 0.93
